Measurements: paper PMC8381248 (Frontiers in Pharmacology, 2021)
Values joined by “and” are separate entries in the source; they are usually repeats but may differ in a detail not shown here. Equal entries are not always repeated. Where two headings read alike, the source gives them in different places.

How the values were obtained:
[1] = Plasma protein binding rate, rapid equilibrium dialysis, rat plasma; format: in vitro ADME; conditions: 37°C
Method: In brief, the unbound drugs (or references) were separated from plasma (human and rat) in a 96-well plate with a semipermeable membrane through which only unbound drug can permeate. The equilibrium unit was sealed and incubated at 37°C in a mixer at 100 rpm for 4 h.
Then, 50 ng/ml of midazolam and 50 ng/ml of tolbutamide (in acetonitrile) were used as IS.
After reaching equilibrium, the concentrations of the samples in both the plasma and the buffer compartment were determined. According to the specification, the resultant supernatant was collected, properly diluted by distilled water, vortexed for 10 min, and finally analyzed using LC-MS/MS. All the samples (PDG, PINL, diclofenac, and propranolol) for detection were prepared in duplicate.
The concentrations of the samples were determined by internal standard methods, in which the data were acquired and analyzed by Analyst 1.6.1 software station (AB Sciex Corporation, Boston, MA, United States). The equation of plasma protein binding rate is calculated as follows: Free drug rate (%)=CB/CA×100% (3) Plasma protein binding rate (%)=100%−Free drug rate(%) (4) C B is the drug concentration in dialysis chamber, and C A is the drug concentration in the sample chamber.

[2] = in vitro; conditions: microsomes
Method: Then, this incubation plate containing mixed solution and NADPH regeneration system was agitated on a plate shaker at 100 rpm and pre-incubated at 37°C for 5 min. Subsequently, 300 μL of precooled quenching solution was added to each well of another deep-well plate (quench plate), which was cooled on ice. The solution in the incubation plate was transferred into the well of the quench plate as the samples in 0 min before it was mixed with another 20 µL of NADPH regeneration solution in the wells.
The incubation plate was incubated at 37°C for 0, 10, 30, and 90 min. At each time point, 100 μL of the supernatant in the incubation plate was removed from each well, quenched immediately, transferred to the wells of the ice-cold quench plate, and vortexed for 5 min. Additionally, an equal volume of pre-warmed fresh regeneration solution was added to the incubation plate for compensation after every withdrawal. […] Each test was operated in duplicate. The determination conditions of LC-MS/MS are shown in Support Materials (Supplementary Table S4).
The in vitro T1/2 was determined by converting the analyte/IS peak area ratios to percentage of drug remaining using the initial peak (t = 0 min) area ratio values as 100%.

[3] = Pharmacokinetic study in rat plasma after intravenous and oral administration; format: in vivo, Sprague-Dawley (SD) rats; conditions: for Cmax / AUC(0-t) / Tmax / AUC(0-inf) / MRT inf / Cl_pred / HL_Lambda_z / Vz_pred: rat plasma; for AUC(0-inf): read-out: AUCINF_pred; for MRT inf: read-out: MRTINF_pred
Method: Eighteen male SD rats were housed in the barrier rodent facilities to acclimatize for a week in animal quarters, which had air conditioning and an automatically controlled photoperiod of 12 h of light daily. Rats had free access to standard chow diet and water until 12 h prior to the beginning of the experiment, at which time only water was accessed freely. The rats were randomly divided into six groups, with three rats in each group.
A series of calibration standard working solutions (20.0, 10.0, 2.0, 1.0, 0.2, 0.04, and 0.02 μg/ml) was prepared freshly by diluting the stock solution stepwise using ACN-water (70:30, v/v). […] The IS working solutions of 200 ng/ml of tolbutamide or 50 ng/ml of diclofenac sodium were prepared by dilution of the stock standard solution with acetonitrile solution. All the solutions were stored at 4°C and brought to room temperature before use.
QC samples (3, 40, 800, and 1,600 ng/ml) were prepared separately. For PDG urine samples, the calibration standards were prepared by spiking 5 μL of the appropriate standard working solutions of PDG to 95 μL blank rat urine to prepare the final urine concentration of PDG ranging from 1 ng/ml to 2000 ng/ml. QC samples (3, 40, 800, and 1,600 ng/ml) were prepared separately. […] QC samples (15, 30, 400, and 1,600 ng/ml) were prepared separately.
Blood samples were collected via orbital venous plexus puncture into heparinized microfuge tubes at intervals of 0, 0.083, 0.25, 0.5, 1, 2, 4, 8, 10, 24, and 30 h after administration. The plasma samples were obtained by centrifuging the blood samples at 6,000 rpm for 10 min at 4°C and storing them at −20°C until further analysis. For the plasma calibration standards, QC plasma samples, and the testing plasma samples, 40 µL of the plasma samples were extracted with 120 µL of IS working solution (tolbutamide) by vortex mixing for 1 min and at 4°C centrifugation for 10 min at 13,000 rpm. The supernatant was separated and evaporated under a gentle stream of nitrogen. The residue was reconstituted with 120 µL of 30% ACN followed by vortex mixing. Then, the solutions were centrifuged at 13,000 rpm for 10 min at 4°C.
Linear gradient elution was performed with certain portions of 10 mM ammonium acetate-water solution containing 0.1% formic acid (mobile phase A) and methanol (mobile phase B). The detailed conditions have been described in Support Materials (Supplementary Table S5).
In the ADME properties and pharmacokinetics studies, data are presented as mean ± standard deviation (SD). Statistically significant differences were analyzed by one-way ANOVA or Student’s t-test. The level of significance was set at p < 0.05. The LC/MS/MS data were collected and analyzed by Analyst 1.6.1 (AB Sciex). Pharmacokinetic analyses were performed by non-compartmental methods using Phoenix WinNolin version 6.3 (Pharsight Corporation, Mountain View, CA, United States).

[4] = in vitro; conditions: PAMPA
Method: Verapamil and digoxin solutions, used as reference, prepared in the same manner as the test drugs. Tolbutamide dissolved with acetonitrile (200 ng/ml) was used as IS.
The resultant supernatants were determined by LC-MS/MS. The specific assay conditions are shown in Support Materials (Supplementary Table S2).

[5] = male, Sprague-Dawley, IV 5 mg/kg, n = 3
[6] = male, Sprague-Dawley, PO 40 mg/kg, n = 3

COc1cc(C2OCC3C(c4ccc(OC5OC(CO)C(O)C(O)C5O)c(OC)c4)OCC23)ccc1OC1OC(CO)C(O)C(O)C1O (single isomer, unassigned; (+)) [PDG, (+)-1-pinoresinol 4,4′-di-O-β-D-glucopyranoside]
fraction unbound at 4 h, 10 µM [1]: 0.623
half-life ([2]; human): 16.7 h
half-life at 5 µM ([2]; human): 16.7 h
microsomal CLint ([2]; human): 1.4 µL/min/mg
half-life ([2]; rat): 17.3 h
half-life at 5 µM ([2]; rat): 17.3 h
microsomal CLint ([2]; rat): 1.3 µL/min/mg
bioavailability ([3]; male, Sprague-Dawley, plasma, rat, from AUClast of IV 5 mg/kg and PO 40 mg/kg, read-out: absolute oral bioavailability (F%)): ~0.19%
Cmax ([3]; male, Sprague-Dawley, rat, plasma, iv, 5 mg/kg, IV 5 mg/kg, n = 3, read-out: Cmax): 13300 ng/mL
Cmax ([3]; male, Sprague-Dawley, rat, plasma, iv, 5 mg/kg, IV 5 mg/kg, ng/ml value expressed in molar units, read-out: Cmax): 19.6 µM
Cmax ([3]; male, Sprague-Dawley, rat, plasma, po, 40 mg/kg, PO 40 mg/kg, n = 3, read-out: Cmax): 45.3 ± 37.5 ng/mL
Cmax ([3]; male, Sprague-Dawley, rat, plasma, po, 40 mg/kg, PO 40 mg/kg, ng/ml value expressed in molar units, read-out: Cmax): 0.0665 µM
AUC(0-t) [3, 5]: 7470 ng·h/mL
Tmax [3, 5]: 0.1 h
AUC(0-inf) [3, 5]: 7470 ng·h/mL
MRT inf [3, 5]: 0.51 ± 0.09 h
AUC(0-t) [3, 6]: 113 ± 122 ng·h/mL
Tmax [3, 6]: 0.5 h
AUC(0-inf) [3, 6]: 121 ± 129 ng·h/mL
MRT inf [3, 6]: 1.9 ± 0.95 h
Cl_pred ([3]; IV 5 mg/kg, n = 3): 0.69 ± 0.15 L/h/kg
HL_Lambda_z ([3]; IV 5 mg/kg, n = 3): 2.0 ± 0.5 h
Vz_pred ([3]; IV 5 mg/kg, n = 3): 1.98 ± 0.43 L/kg
Cmax ([3]; IV 5 mg/kg, n = 3, 5 mg/kg): 13,328.57 ± 1,625.4 ng/ml
Cl_pred ([3]; PO 40 mg/kg, n = 3): 653.9 ± 492.6 L/h/kg
Vz_pred ([3]; PO 40 mg/kg, n = 3): 777.0 ± 392.4 L/kg
HL_Lambda_z ([3]; PO 40 mg/kg, n = 3, 40 mg/kg): 1.15 h and 1.15 ± 0.75 h
Papp at 18000 s [4]: 0.002 ×10⁻⁶ cm/s
Peff ([4]; 18000 s): 0.02 cm/s, ×10^–7
